Reference: patent publication US7442547B2, “Dendritic cells and the uses thereof in screening cellular targets and potential drugs” (Sekmed, S.R.L., priority 2001, dated 2008)

System: D1 cells
Experiment: Differential gene expression analysis (Mu6500 GeneChip) in LPS- and TNF-α-stimulated versus unstimulated D1 cells
Type: cell-based, mouse
Set-up: key: NC: No change in the level of expression; I: induced (detected only in stimulated cells); U: up-regulated; D: down-regulated; S: suppressed (detected only in unstimulated cells)
Conditions: no asterisk=fold change, *=AvgDiff after stimulation, **=AvgDiff in baseline
Method: Cells and reagents. The D1 cells were derived from murine splenic DC and maintained in vitro in IMDM supplemented with 30% R1 conditional medium as previously described. LPS (Escherichia coli sero- type 026:B6) was purchased from Sigma Chemical Co. and used at 10 μg/ml. Muriner TNF-α (Genetech Inc., San Francisco. Calif.) was used at 100 U/ml. Cells were grown and harvested at the same time.
RNA extraction, amplification and labeling for hybridization. Antisense cRNA was prepared following Affymetrix (Santa Clara, Calif.) recommendations. Briefly, mRNA was directly extracted from frozen pellets using the DIRECT OLIGOTEX KIT (i.e., column chromatography kit for mRNA purification) from Qiagen (Chatsworth, Calif.) and converted to double-stranded cDNA using a modified oligo dT primer with a 5′T7 RNA polymerase promoter sequence and the SUPER-SCRIPT CHOICE SYSTEM (i.e., reverse transcriptase system) for cDNA synthesis (Life Technologies, Gaithesbourg, Md.). Double-stranded cDNA (0.5 μg) was transcribed to cRNA with the T7 RNA polymerase (T7 MEGASCRIPT KIT (i.e., phage specific in vitro transcription kit); Ambion, Austin, Tex.) in the presence of a mixture of unlabeled ATP, CTP, GTP, UTP and biotin-labeled CTP and UTP (ENZO Diagnostics, Farmingdale, N.Y.). cRNA was purified on an affinity column (RNEASY (i.e., a RNA purification column); Qiagen).
Probe array hybridization and scanning. The Mu6500 GENECHIP (i.e., DNA microarray) array consists of a set of four individual chips, A-D, collectively representing 6,500 murine genes and ESTs. Analysis of the D1 samples was performed by hybridizing the cRNA to the GENECHIP (i.e., DNA microarray) arrays A-D. Probe array hybridizations were carried out as described. cRNA was fragmented to an average size of 50-200 bases, by incubation for 30 min at 94° C. in 40 mM Tris-acetate pH 8.1, 100 mM potassium acetate and 30 mM magnesium acetate.
Samples were then diluted in the hybridization solution (1 M NaCI, 10 mM Tris pH7.6, 0.005% Triton X-100, 0.1 mg/ml herring sperm DNA, BioB-, BioC-, BioD-, cre- control cRNA at a concentration of 1.5, 5, 25, 100 pM, respectively) at a final concentration of 0.05 μg/ml heated at 94° C. for 5 min and placed in the hybridization cartridge (200 μl/chip). Hybridizations were performed at 40° C. for 16 h. Following hybridization the chips were rinsed with 6× SSPE-T (0.9 M NaCI, 60 mM NaH2PO4, 6 mM EDTA, 0.005% Triton X-100 adjusted to pH 7.6) and 0.5× SSPE-T and stained by incubating with 2 μg/ml streptavidin-phycoerythrin (Molecular Probes, Eugene, Oreg.) and 1 mg/ml acetylated BSA (Sigma, St. Louis, Mo.).
The arrays were read at a resolution of 7.5 μm. using a confocal scanner (Affymetrix) and analyzed with the GENECHIP 3.3 GENE EXPRESSION ANALYSIS PROGRAM (i.e., gene expression analysis software) (Affymetrix).
Gene expression analysis was performed on immature, transitional (6 h LPS and TNF-α-activated) and mature (18 h LPS- and TNF-α-activated) D1 cells using GENECHIP (i.e., DNA microarray) oligonucleotide probe arrays representing approximately 6,500 distinct mouse genes and ESTs. The 6,500 probe sets are subdivided in four individual chips, A-D, each containing oligonucleotide probes for about 1,600 genes and ESTs. The hybridized arrays were analyzed using the GENECHIP 3.3 GENE EXPRESSION ANALYSIS PROGRAM (i.e., gene expression analysis software). Data analysis protocols, sensitivity and quantitative aspects of the method have been previously precisely described. In brief, gene probes are represented by 20 perfectly matched 20-mer oligonucleotides (PM) and 20 control oligonucleotides with a single mismatch (MM). Gene expression levels are defined averaging the differences (AvgDiff) between the PM and MM of every probe pair over the entire probe set:
An AvgDiff of 20 approximates the lower value of fluorescence intensity for detected genes. […]

tumor necrosis factor [TNFα]
NC: 1AP3 (Y08026) gene expression, stimulated versus unstimulated D1 cells (6 h) | BTG1 (L16846) gene expression, stimulated versus unstimulated D1 cells (6 h) | BTG3 (Z72000) gene expression, stimulated versus unstimulated D1 cells (6 h) | CD14 (M34510) gene expression, stimulated versus unstimulated D1 cells (6 h) | CD37 (U18372) gene expression, stimulated versus unstimulated D1 cells (6 h) | CD40 (M833312) gene expression, stimulated versus unstimulated D1 cells (6 h) | CYL-1 (M64403) gene expression, stimulated versus unstimulated D1 cells (6 h) | Clqα (X58861) gene expression, stimulated versus unstimulated D1 cells (6 h) | EtAI (X16151) gene expression, stimulated versus unstimulated D1 cells (6 h) | F4-80 (X93328) gene expression, stimulated versus unstimulated D1 cells (6 h) | GAS (U19860) gene expression, stimulated versus unstimulated D1 cells (6 h) | H-2Mα (U35323) gene expression, stimulated versus unstimulated D1 cells (6 h) | H-2Mβ1 (U35323) gene expression, stimulated versus unstimulated D1 cells (6 h) | I-Aα (K01923) gene expression, stimulated versus unstimulated D1 cells (6 h) | I-Aβ (V01527) gene expression, stimulated versus unstimulated D1 cells (6 h) | IL-6 (J03783) gene expression, stimulated versus unstimulated D1 cells (6 h) | IL-12p40 (M86671) gene expression, stimulated versus unstimulated D1 cells (6 h) | IL-IRA (M64404) gene expression, stimulated versus unstimulated D1 cells (6 h) | Jaw1 (U10484) gene expression, stimulated versus unstimulated D1 cells (6 h) | Ki-67 (X82786) gene expression, stimulated versus unstimulated D1 cells (6 h) | MIP-1α (M73061) gene expression, stimulated versus unstimulated D1 cells (6 h) | MIP-2 (X53798) gene expression, stimulated versus unstimulated D1 cells (6 h) | Macrostatin (X68273) gene expression, stimulated versus unstimulated D1 cells (6 h) | OX40L (U12763) gene expression, stimulated versus unstimulated D1 cells (6 h) | PA28 (U60329) gene expression, stimulated versus unstimulated D1 cells (6 h) | RCK (D50494) gene expression, stimulated versus unstimulated D1 cells (6 h) | TAP-1cas (M55637) gene expression, stimulated versus unstimulated D1 cells (6 h) | TIS (D86344) gene expression, stimulated versus unstimulated D1 cells (6 h) | TMP (U25633) gene expression, stimulated versus unstimulated D1 cells (6 h) | TSA1 (U47737) gene expression, stimulated versus unstimulated D1 cells (6 h) | c-1AP-I (L49433) gene expression, stimulated versus unstimulated D1 cells (6 h) | cyclin A (Z26580) gene expression, stimulated versus unstimulated D1 cells (6 h) | cyclin B1 (X64713) gene expression, stimulated versus unstimulated D1 cells (6 h) | cyclin B2 (X66032) gene expression, stimulated versus unstimulated D1 cells (6 h) | cyclin D2 (M83749) gene expression, stimulated versus unstimulated D1 cells (6 h) | serum amyloid (X03505) gene expression, stimulated versus unstimulated D1 cells (6 h) | βig-h3 (L19932) gene expression, stimulated versus unstimulated D1 cells (6 h) | BTG1 (L16846) gene expression, stimulated versus unstimulated D1 cells (18 h) | CD14 (M34510) gene expression, stimulated versus unstimulated D1 cells (18 h) | CD37 (U18372) gene expression, stimulated versus unstimulated D1 cells (18 h) | CYL-1 (M64403) gene expression, stimulated versus unstimulated D1 cells (18 h) | Clqα (X58861) gene expression, stimulated versus unstimulated D1 cells (18 h) | F4-80 (X93328) gene expression, stimulated versus unstimulated D1 cells (18 h) | GAS (U19860) gene expression, stimulated versus unstimulated D1 cells (18 h) | H-2Mα (U35323) gene expression, stimulated versus unstimulated D1 cells (18 h) | H-2Mβ1 (U35323) gene expression, stimulated versus unstimulated D1 cells (18 h) | I-Aα (K01923) gene expression, stimulated versus unstimulated D1 cells (18 h) | I-Aβ (V01527) gene expression, stimulated versus unstimulated D1 cells (18 h) | IL-6 (J03783) gene expression, stimulated versus unstimulated D1 cells (18 h) | IL-12p40 (M86671) gene expression, stimulated versus unstimulated D1 cells (18 h) | IL-IRA (M64404) gene expression, stimulated versus unstimulated D1 cells (18 h) | MIP-1α (M73061) gene expression, stimulated versus unstimulated D1 cells (18 h) | MIP-2 (X53798) gene expression, stimulated versus unstimulated D1 cells (18 h) | Macrostatin (X68273) gene expression, stimulated versus unstimulated D1 cells (18 h) | OX40L (U12763) gene expression, stimulated versus unstimulated D1 cells (18 h) | PA28 (U60329) gene expression, stimulated versus unstimulated D1 cells (18 h) | RCK (D50494) gene expression, stimulated versus unstimulated D1 cells (18 h) | TAP-1cas (M55637) gene expression, stimulated versus unstimulated D1 cells (18 h) | TIS (D86344) gene expression, stimulated versus unstimulated D1 cells (18 h) | TSA1 (U47737) gene expression, stimulated versus unstimulated D1 cells (18 h) | cyclin A (Z26580) gene expression, stimulated versus unstimulated D1 cells (18 h) | cyclin D2 (M83749) gene expression, stimulated versus unstimulated D1 cells (18 h) | mMCM2 (D86725) gene expression, stimulated versus unstimulated D1 cells (18 h) | properdin (X12905) gene expression, stimulated versus unstimulated D1 cells (18 h) | βig-h3 (L19932) gene expression, stimulated versus unstimulated D1 cells (18 h)
